SMILES strings stand for the structures.

Data set [1] concerns Myzus persicae. In words: Myzus persicae oral test. The class given is in vivo. The settings on record: 120 h, application rate 4 ppm, after 5 days, read-out: efficacy (aphids killed). On the procedure: To produce a suitable active ingredient formulation, 1 part by weight of active ingredient is dissolved with the stated parts by weight of solvent and made up to the desired concentration with water.
50 μl of the active ingredient preparation are transferred into microtitre plates and made up to a final volume of 200 μl with 150 μl of IPL41 insect medium (33%+15% sugar). Subselog Puently, the plates are sealed with parafilm, which a mixed population of green peach aphids (Myzus persicae) within a second microtitre plate is able to puncture and imbibe the solution.
(§1) After 5 days, the efficacy in % is determined. 100% means that all the aphids have been killed; 0% means that no aphids have been killed.

Data set [2] concerns Myzus persicae. Description: Myzus persicae spray test. The class given is in vivo. To be noted: foliar, 120 h, application rate 100 g/ha, after 5 days, Chinese cabbage leaf discs, read-out: efficacy (aphids killed). The method, then:
(§2) To produce a suitable active ingredient formulation, 1 part by weight of active ingredient is dissolved with the specified parts by weight of solvent and made up to the desired concentration with water containing an emulsifier concentration of 1000 ppm. To produce further test concentrations, the formulation is diluted with emulsifier-containing water.
Discs of Chinese cabbage leaves (Brassica pekinensis) infested by all stages of the green peach aphid (Myzus persicae) are sprayed with an active ingredient formulation of the desired concentration.
as §1

The test system of a further data set is Tetranychus urticae. Description: Tetranychus urticae spray test, OP-resistant. The data set is classed as in vivo. To be noted: application rate 100 g/ha, after 6 days, bean leaf discs. On the procedure: as §2
Discs of bean leaves (Phaseolus vulgaris) infested with all stages of the greenhouse red spider mite (Tetranychus urticae) are sprayed with an active ingredient formulation of the desired concentration.
After 6 days, the efficacy in % is determined. 100% means that all the spider mites have been killed; 0% means that no spider mites have been killed.

In the next data set the test system is Phaedon cochleariae. In words: Phaedon cochleariae spray test. The data set is classed as in vivo. The settings on record: application rate 100 g/ha, after 7 days, Chinese cabbage leaf discs. The method, then: as §2
Discs of Chinese cabbage leaves (Brassica pekinensis) are sprayed with an active ingredient formulation of the desired concentration and, after drying, populated with larvae of the mustard beetle (Phaedon cochleariae).
After 7 days, the efficacy in % is determined. 100% means that all the beetle larvae have been killed; 0% means that no beetle larvae have been killed.

Data set [3] in a line: log P by HPLC on reversed-phase column, acidic range. The data set is classed as physicochemical. To be noted: reversed-phase HPLC column (C 18); pH 2.7, 0.1% aqueous formic acid and acetonitrile, C 18 column, 55° C.; read-out: log P (HCOOH). On the procedure: The log P values are measured according to EEC Directive 79/831 Annex V.A8 by HPLC (high-performance lilog Puid chromatography) on a reversed-phase column (C 18). Temperature: 55° C.
The LC-MS determination in the acidic range is effected at pH 2.7 with 0.1% alog Pueous formic acid and acetonitrile (containing 0.1% formic acid) as eluents; linear gradient from 10% acetonitrile to 95% acetonitrile. Called log P (HCOOH) in the table.
Calibration is effected using unbranched alkan-2-ones (having 3 to 16 carbon atoms) with known log P values (log P values determined on the basis of the retention times by linear interpolation between two successive alkanones).

Another data set has as its system Diabrotica balteata. Description: Diabrotica balteata spray test. To be noted: application rate 160 μg/cavity, after 7 days, beetle larvae on germinated wheat grains. The data set is classed as in vivo. The method, then: To produce an appropriate active ingredient formulation, 1 part by weight of active ingredient is dissolved with the given parts by weight of solvent and made up with water containing an emulsifier concentration of 1000 ppm until the desired concentration is attained. Further test concentrations are produced by diluting with emulsifier-containing water.
Pre-swollen wheat grains (Triticum aestivum) are incubated in a multiwell plate filled with agar and a little water for one day (5 seed grains per cavity). The germinated wheat grains are sprayed with an active ingredient formulation of the desired concentration. Subselog Puently, each cavity is infected with 10-20 Diabrotica balteata beetle larvae.
After 7 days, efficacy in % is determined. 100% means that all wheat plants have grown as in the untreated, uninfected control; 0% means that no wheat plant has grown.

Another data set deals with Boophilus microplus. Description: Boophilus microplus injection test. The class given is in vivo. To be noted: application rate 20 μg/animal, assessed after 7 days, engorged adult female cattle ticks. On the procedure: (§3) Solvent: dimethyl sulfoxide
To produce a suitable active ingredient formulation, 10 mg of active ingredient are mixed with 0.5 ml of solvent and the concentrate is diluted to the desired concentration with solvent.
1 μl of the active ingredient solution is injected into the abdomen of 5 engorged adult female cattle ticks (Boophilus microplus). The animals are transferred into dishes and kept in a climate-controlled room.
Efficacy is assessed after 7 days by laying of fertile eggs. Eggs which are not visibly fertile are stored in a climate-controlled cabinet until the larvae hatch after about 42 days. An efficacy of 100% means that none of the ticks has laid any fertile eggs; 0% means that all the eggs are fertile.

The next data set deals with Ctenocephalides felis. Description: Ctenocephalides felis oral test. The class given is in vivo. To be noted: application rate 100 ppm in citrated cattle blood, after 2 days, adult cat fleas. The method, then:
as §3
To produce a suitable active ingredient formulation, 10 mg of active ingredient are mixed with 0.5 ml of dimethyl sulfoxide. Dilution with citrated cattle blood gives the desired concentration.
About 20 unfed adult cat fleas (Ctenocephalides felis) are placed into a chamber which is closed at the top and bottom with gauze. A metal cylinder whose bottom end is closed with parafilm is placed onto the chamber. The cylinder contains the blood/active ingredient formulation, which can be imbibed by the fleas through the parafilm membrane.
After 2 days, the kill in % is determined. 100% means that all of the fleas have been killed; 0% means that none of the fleas have been killed.

The subject of another data set is Spodoptera frugiperda. Description: Spodoptera frugiperda spray test. The data set is classed as in vivo. The settings on record: application rate 100 g/ha, after 7 days, maize leaf discs. The method, then: as §2
Leaf discs of maize (Zea mays) are sprayed with an active ingredient formulation of the desired concentration and, after drying, populated with caterpillars of the armyworm (Spodoptera frugiperda).
After 7 days, the efficacy in % is determined. 100% means that all the caterpillars have been killed; 0% means that no caterpillar has been killed.

On to `CCS(=O)(=O)c1c(-c2nc3cc(C(F)(F)F)cnc3n2C)nn2c1CC(C)CC2` (centres unmarked) [Example I-10], for which, in the data set on Myzus persicae [1], the pest or weed control at 4 ppm turned out to be 100%. Also, the pest or weed control at 100 g/ha with Myzus persicae [2] is 90%. Moreover, the “efficacy (spider mites killed)” value in the data set with Tetranychus urticae is given as 90%.

Take `CCS(=O)(=O)c1c(-c2nc3cc(C(F)(F)F)ncc3n2C)nn2c1CC(C(F)(F)F)CC2` (centres unmarked) [Example I-04]: the pest or weed control at 4 ppm in the data set on Myzus persicae [1] came to 100%. The pest or weed control at 100 g/ha in the data set on Myzus persicae [2] worked out at 100%. In addition, in the data set with Tetranychus urticae, the “efficacy (spider mites killed)” value was found to be 100%.

Take `CCS(=O)(=O)c1c(-c2nc3cc(C(F)(F)C(F)(F)F)ncc3n2C)nn2c1CCCC2` [Example I-12]: the pest or weed control at 4 ppm in the data set with Myzus persicae [1] was 100%. Also, the pest or weed control at 100 g/ha in the data set with Myzus persicae [2] was determined as 90%. Further, in the data set with Phaedon cochleariae, the “efficacy (beetle larvae killed)” value was found to be 100%.

Regarding `CCS(=O)(=O)c1c(-c2nc3cc(OC(F)(F)F)cnc3n2C)nn2c1CCC(C)C2` (centres unmarked) [Example I-09], in the data set with Myzus persicae [1], the pest or weed control at 4 ppm is 90%. For the same compound, in the data set with Myzus persicae [2], the pest or weed control at 100 g/ha is 90%.

Consider `O=C(O)c1cc2n(n1)CCC(C(F)(F)F)C2` (centres unmarked) [5-(Trifluoromethyl)-4,5,6,7-tetrahydropyrazolo[1,5-a]pyridine-2-carboxylic add], for which the chromatographic logP in data set [3] turned out to be 1.28.

In the case of `CCS(=O)(=O)c1c(-c2nc3c(n2C)CN(C)C(C(F)(F)F)=C3)nn2c1CCC(C(F)(F)F)C2` (centres unmarked) [Example I-18], in the data set with Diabrotica balteata, the “efficacy (wheat plants grown as in untreated, uninfected control)” value came out at 100%. In addition, the pest or weed control at 4 ppm in the data set on Myzus persicae [1] was 100%. Besides, the pest or weed control at 100 g/ha with Myzus persicae [2] stood at 90%.

Regarding `CCS(=O)(=O)c1c(-c2nc3cc(S(=O)(=O)C(F)(F)F)ccc3o2)nn2c1CCC(C)C2` (centres unmarked) [Example I-16], in the data set on Myzus persicae [1], the pest or weed control at 4 ppm is 90%.

Turning to `CCS(=O)(=O)c1c(-c2nc3cc(C(F)(F)F)cnc3n2C)nn2c1CCC(C)C2` (centres unmarked) [Example I-07], in the data set with Myzus persicae [1], the pest or weed control at 4 ppm is 100%.

`CCS(=O)(=O)c1c(-c2nc3cc(C(F)(F)F)cnc3n2C)nn2c1CCCC2` [Example I-03]: in the data set on Myzus persicae [1], the pest or weed control at 4 ppm stood at 100%. Further, the pest or weed control at 100 g/ha with Myzus persicae [2] is 90%. Also, the “efficacy (beetle larvae killed)” value with Phaedon cochleariae is given as 100%.

With `CCS(=O)(=O)c1c(-c2nc3cc(C(F)(F)C(F)(F)F)ncc3n2C)nn2c1CC(C)CC2` (centres unmarked) [Example I-13], the “efficacy (no laying of fertile eggs)” value with Boophilus microplus worked out at 100%. Moreover, the “efficacy (kill in %)” value with Ctenocephalides felis amounted to 100%. In the data set on Myzus persicae [1], the pest or weed control at 4 ppm amounted to 100%. In the data set with Myzus persicae [2], the pest or weed control at 100 g/ha was determined as 90%. The “efficacy (caterpillars killed)” value with Spodoptera frugiperda is 100%. Further, the “efficacy (spider mites killed)” value in the data set on Tetranychus urticae amounted to 100%.

With `CCS(=O)(=O)c1c(-c2nc3cc(S(=O)(=O)C(F)(F)F)cnc3n2C)nn2c1CCC(C)C2` (centres unmarked) [Example I-15], the “efficacy (kill in %)” value in the data set with Ctenocephalides felis was 90%. Moreover, the pest or weed control at 4 ppm in the data set with Myzus persicae [1] turned out to be 90%. Moreover, in the data set on Myzus persicae [2], the pest or weed control at 100 g/ha is 90%. In the data set on Spodoptera frugiperda, the “efficacy (caterpillars killed)” value came to 100%.

For the compound `O=C(O)c1cc2cc(C(F)(F)F)ccn2n1` [5-(Trifluoromethyl)pyrazolo[1,5-a]pyridine-2-carboxylic add], in data set [3], the chromatographic logP is 1.58.

For the compound `CCS(=O)(=O)c1c(-c2nc3cc(C(F)(F)C(F)(F)F)ncc3n2C)nn2c1CCC(C(F)(F)F)C2` (centres unmarked) [Example I-17], the “efficacy (wheat plants grown as in untreated, uninfected control)” value with Diabrotica balteata is on record as 100%. The pest or weed control at 4 ppm in the data set with Myzus persicae [1] stood at 100%. The “efficacy (caterpillars killed)” value in the data set on Spodoptera frugiperda was 100%.

As to `CCS(=O)(=O)c1c(-c2nc3cc(C(F)(F)F)cnc3n2C)nn2c1CC(C(F)(F)F)CC2` (centres unmarked) [Example I-01, 2-[3-Ethylsulfonyl-5-(trifluoromethyl)-4,5,6,7-tetrahydropyrazolo[1,5-a]pyridin-2-yl]-3-methyl-6-(trifluoromethyl)imidazo[4,5-b]pyridine], in the data set with Myzus persicae [1], the pest or weed control at 4 ppm is 100%. Also, the “efficacy (beetle larvae killed)” value in the data set with Phaedon cochleariae is given as 100%. The “efficacy (caterpillars killed)” value in the data set on Spodoptera frugiperda stood at 100%. Further, the chromatographic logP in data set [3] turned out to be 3.21.

As for `CCS(=O)(=O)c1c(-c2nc3cc(C(F)(F)F)ncc3n2C)nn2c1CCC(C)C2` (centres unmarked) [Example I-06], the pest or weed control at 100 g/ha in the data set with Myzus persicae [2] stood at 90%.

Turning to `Cn1c(-c2nn3c(c2Br)CC(C(F)(F)F)CC3)nc2cc(C(F)(F)F)cnc21` (centres unmarked) [2-[3-Bromo-5-(trifluoromethyl)-4,5,6,7-tetrahydropyrazolo[1,5-a]pyridin-2-yl]-3-methyl-6-(trifluoromethyl)imidazo[4,5-b]pyridine], in [3], the chromatographic logP came out at 3.99.

As for `CCS(=O)(=O)c1c(-c2nc3cc(SC(F)(F)F)cnc3n2C)nn2c1CCC(C)C2` (centres unmarked) [Example I-11], the “efficacy (kill in %)” value with Ctenocephalides felis is 100%. Further, in the data set with Myzus persicae [1], the pest or weed control at 4 ppm is 100%. Moreover, the pest or weed control at 100 g/ha in the data set with Myzus persicae [2] amounted to 90%. Also, the “efficacy (caterpillars killed)” value in the data set on Spodoptera frugiperda is reported as 83%.

On to `CCS(=O)(=O)c1c(-c2nc3cc(C(F)(F)C(F)(F)F)cnc3n2C)nn2c1CCC(C)C2` (centres unmarked) [Example I-08], for which the pest or weed control at 4 ppm in the data set on Myzus persicae [1] was found to be 100%. For the same compound, the “efficacy (caterpillars killed)” value with Spodoptera frugiperda is on record as 100%.

`CCS(=O)(=O)c1c(-c2nc3cc([S+]([O-])C(F)(F)F)cnc3n2C)nn2c1CCC(C)C2` (centres unmarked) [Example I-14]: in the data set on Myzus persicae [1], the pest or weed control at 4 ppm came out at 100%. In addition, the pest or weed control at 100 g/ha in the data set with Myzus persicae [2] turned out to be 100%.

As for `O=C(O)c1nn2c(c1Br)CC(C(F)(F)F)CC2` (centres unmarked) [3-Bromo-5-(trifluoromethyl)-4,5,6,7-tetrahydropyrazolo[1,5-a]pyridine-2-carboxylic acid], the chromatographic logP in data set [3] worked out at 1.75.

`COC(=O)c1nn2ccc(C(F)(F)F)cc2c1C(=O)OC` [Dimethyl 5-(trifluoromethyl)pyrazolo[1,5-a]pyridine-2,3-dicarboxylate]: the chromatographic logP in data set [3] came to 2.57.

On to `CCS(=O)(=O)c1c(-c2nc3cc(C(F)(F)C(F)(F)F)cnc3n2C)nn2c1CCC(C(F)(F)F)C2` (centres unmarked) [Example I-19], for which the “efficacy (wheat plants grown as in untreated, uninfected control)” value with Diabrotica balteata turned out to be 100%. Further, the pest or weed control at 4 ppm in the data set with Myzus persicae [1] stood at 100%. Besides, the “efficacy (caterpillars killed)” value in the data set with Spodoptera frugiperda stood at 100%.

The values above are taken from patent publication US11019821B2, “Fused bicyclic heterocycle derivatives as pesticides” (Bayer Aktiengesellschaft, priority 2018, dated 2021).
